US20250250258A1, “CRYSTAL FORM OF FGFR4 SELECTIVE INHIBITOR COMPOUND, AND PREPARATION METHOD THEREFOR AND USE THEREOF” (ZHEJIANG HISUN PHARMACEUTICAL CO., LTD., priority 2022, published 2025)
Where two headings read alike, the source gives them in different places.

Tests used:
[1] = tested on: hepatocellular carcinoma cells Hep3B; conditions: reported in background for PCT/CN2017/085135 compound, read-out: inhibitory activity against hepatocellular carcinoma cells Hep3B, IC50; cited from earlier work
[2] = Comparative solubility assay in water; format: physicochemical
[3] = Pharmacokinetic experiment in ICR mice, single gavage; format: in vivo; conditions: 75 mg·kg −1, single gavage
Method: Before and 0.25, 0.5, 1, 2, 4, 8, 10, 12 and 24 hours after administration, 0.15 mL blood was collected from fundus venous plexus and placed into anticoagulant tubes containing EDTA-K2.

[4] = Stability test (25° C., 40° C., light irradiation of 4500 LX, 30 days); format: physicochemical
Method: The compound represented by formula (I) of the present disclosure was subjected to HPLC for purity detection under the following conditions. The used chromatographic column was Waters, XBridge C18 4.6×150 mm, 3.5 μm; the mobile phase A consisted of buffer solution: acetonitrile=70:30, the mobile phase B consisted of buffer solution: acetonitrile=[…], the buffer solution was prepared by weighing 9.13 g of dipotassium hydrogen phosphate trihydrate in 2,000 mL of pure water, and adjusting pH using phosphoric acid to 8.0; the detection wavelength was 234 nm; the flow rate was 1.0 mL/min; the column temperature was 25° C.; and the injection volume was 10 μL.

[5] = stability at 25° C., day 0, HPLC
[6] = stability at 25° C., day 10, HPLC
[7] = stability at 25° C., day 30, HPLC
[8] = stability at 40° C., day 0, HPLC
[9] = stability at 40° C., day 10, HPLC
[10] = stability at 40° C., day 30, HPLC
[11] = stability under the light irradiation of 4500LX, day 0, HPLC
[12] = stability under the light irradiation of 4500LX, day 10, HPLC
[13] = stability under the light irradiation of 4500LX, day 30, HPLC

| Structure (SMILES) | IC50 [1] [nM] | solubility in water at 25° C. [2] | Tmax ([3]; ICR, mouse, in vivo, po, 75 mg/kg, read-out: Tmax) [min] | purity (%) [4, 5] [%] | purity (%) [4, 6] [%] | purity (%) [4, 7] [%] | purity (%) [4, 8] [%] | purity (%) [4, 9] [%] | purity (%) [4, 10] [%] | purity (%) [4, 11] [%] | purity (%) [4, 12] [%] | purity (%) [4, 13] [%] | solubility ([2]; 25 °C, thermodynamic from solid) [mg/mL] | Tmax [3] [min] | Cmax ([3]; mouse, in vivo, po) [ng/mL] | half-life ([3]; mouse, in vivo, po) [min] | AUC(0-t) ([3]; mouse, in vivo, po, 0-24 h sampling) [ng·h/mL] | solubility in water at 25° C. ([2]; listed as the crystal form A of the compound represented by formula (I)) [mg/mL] |
| --- | --- | --- | --- | --- | --- | --- | --- | --- | --- | --- | --- | --- | --- | --- | --- | --- | --- | --- |
| C=CC(=O)Nc1cc(N2CCN(CC)C3(CC3)C2)ccc1Nc1cc(N(C)C(=O)Nc2c(Cl)c(OC)cc(OC)c2Cl)ncn1 [N-(2-((6-(3-(2,6-dichloro-3,5-dimethoxyphenyl)-1-methylureido)pyrimidin-4-yl)amino)-5-(4-ethyl-4,7-diazaspiro[2.5]octane-7-yl)phenyl)acrylamide] | 19 | insoluble |  |  |  |  |  |  |  |  |  |  |  |  |  |  |  |  |
| C=CC(=O)Nc1cc(N2CCN(CC)C3(CC3)C2)ccc1Nc1cc(N(C)C(=O)Nc2c(Cl)c(OC)cc(OC)c2Cl)ncn1.CCS(=O)(=O)O.CCS(=O)(=O)O [amorphous form, N-(2-((6-(3-(2,6-dichloro-3,5-dimethoxyphenyl)-1-methylureido)pyrimidin-4-yl)amino)-5-(4-ethyl-4,7-diazaspiro[2.5]octan-7-yl)phenyl)acrylamide diethanesulfonate salt] |  |  | 30 | 98.80 | 96.60 | 91.60 | 98.80 | 93.40 | 87.60 | 98.80 | 86.20 | 73.70 | 115 |  |  |  |  |  |
| C=CC(=O)Nc1cc(N2CCN(CC)C3(CC3)C2)ccc1Nc1cc(N(C)C(=O)Nc2c(Cl)c(OC)cc(OC)c2Cl)ncn1.CCS(=O)(=O)O.CCS(=O)(=O)O [crystal form A, N-(2-((6-(3-(2,6-dichloro-3,5-dimethoxyphenyl)-1-methylureido)pyrimidin-4-yl)amino)-5-(4-ethyl-4,7-diazaspiro[2.5]octan-7-yl)phenyl)acrylamide diethanesulfonate salt] |  |  |  | 99.64 | 99.63 | 99.62 | 99.64 | 99.61 | 99.60 | 99.64 | 99.61 | 99.54 |  | 36.6 | 3980 | 91.2 | 9340 | 100 |
